In article PMC12112586, “Inhibitory Effect of Fluralaner on GABA Receptor Subunit RDL of Bactrocera dorsalis” (Insects, 2025) one finds IC50 and EC50 data, which are given here for two compounds.

The target of test [1] is T1, BdRDL (GABA receptor subunit RDL) (Bactrocera dorsalis, UniProt A0ABM3JZQ9).
T1 construct: gene LOC105225059; full-length ORF, 596 amino acids (GenBank XM_049458762), homomeric receptor expressed in Xenopus oocytes
T1 sequence (A0ABM3JZQ9 1-596): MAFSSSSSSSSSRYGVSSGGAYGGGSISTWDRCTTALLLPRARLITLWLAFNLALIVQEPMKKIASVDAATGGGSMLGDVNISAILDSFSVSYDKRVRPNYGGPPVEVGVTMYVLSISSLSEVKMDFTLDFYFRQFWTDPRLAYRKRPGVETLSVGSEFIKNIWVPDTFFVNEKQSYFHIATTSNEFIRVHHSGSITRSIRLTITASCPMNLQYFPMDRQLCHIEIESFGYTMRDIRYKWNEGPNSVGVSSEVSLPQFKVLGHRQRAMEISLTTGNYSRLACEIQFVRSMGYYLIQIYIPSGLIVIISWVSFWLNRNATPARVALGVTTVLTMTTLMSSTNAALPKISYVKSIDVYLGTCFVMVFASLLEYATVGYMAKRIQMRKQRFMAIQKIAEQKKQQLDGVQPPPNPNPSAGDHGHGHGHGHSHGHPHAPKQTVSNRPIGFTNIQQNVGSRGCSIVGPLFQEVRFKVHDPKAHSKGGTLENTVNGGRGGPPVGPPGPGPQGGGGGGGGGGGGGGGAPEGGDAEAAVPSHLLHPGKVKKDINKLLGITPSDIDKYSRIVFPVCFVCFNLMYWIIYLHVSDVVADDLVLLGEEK
Nature of the test: two-electrode voltage clamp in Xenopus oocytes, inhibition of GABA (EC50)-induced currents. It counts as cell-based.

The target of test [2] is T1, BdRDL (GABA receptor subunit RDL). Nature of the test: two-electrode voltage clamp in Xenopus oocytes, agonist-induced currents. It counts as cell-based. On the technique in general: In two-electrode clamp one electrode senses voltage and the other passes current.

`Cc1cc(C2=NOC(c3cc(Cl)cc(Cl)c3)(C(F)(F)F)C2)ccc1C(=O)NCC(=O)NCC(F)(F)F` (racemic) [fluralaner] showed an IC50 in test [1] of 0.15 µM.
`NCCCC(=O)O` [GABA] came in with an EC50 in test [2] of 240 µM.

For orientation: IC50 means the concentration that inhibits the measured activity by half. As usually defined, the EC50 is the concentration that produces a half-maximal response.
